Data: US10800806B2, “Sterol derivatives and use thereof for treating diseases involving transformed astrocyte cells or for treating malignant haemopathies” (BETA INNOV, priority 2012, dated 2020)

Experiments:
[1] = system: human glioblastoma lines (GBM, line U-87 MG); assay: Anti-GBM activity in vitro on cultures of human U87-MG cells, cell aggregates (CA); format: cell-based
Method: Plastic flat-bottomed 96-well culture plates (NUNC, USA) treated for cell culture (Sigma-Aldrich, ref. 114754) are used; 1500 cells are seeded per well in 200 μl of culture medium. At the time of treatment, 100 μl of pure culture medium, 100 μl of culture medium containing ethanol, or liposomes, or 100 μl of culture medium containing the active ingredients are added per well; the final volume of the culture medium, after treatment, is therefore 300 μl for all the wells.
The human glioblastoma lines (GBM, line U-87 MG) and their culture medium (Eagle's Minimum Essential Medium or EMEM) were obtained from ATCC (USA, ref. ATCC-HTB-14). Culture of the cells is started and maintained according to the recommendations of the ATCC. These lines are commonly used “in vitro” and “in vivo” for testing anti-GBM potential. The doubling time of these lines is 16 h.
The active ingredients are either dissolved in absolute ethanol (AnalaR, NORMAPUR, VWR, France) or in the form of a liposomal solution, such as 10 μl of the stock solutions diluted in 990 μl and then added to the culture wells ([…] medium per well BI-GBM: 300 μl).
When the active ingredients are in ethanolic solution, the culture medium contains […] ethanol (v/v).
Briefly, the compounds to be tested, namely the compounds according to the invention (active ingredients) or 7β-OHCH—C3-ester (a derivative of 7beta-hydroxysterol esterified in position 3 with an oleate group, the synthesis of which is described by Rakotoarivelo et al. (18) and used as control), soya phosphatidylcholine (Sigma) as well as cholesteryl-3-sulphate (Sigma) are taken from their stock solutions prepared from dichloroethane in the case of the active ingredients and the 7β-OHCH—C3-ester, a chloroform:methanol mixture (9:1, v/v) in the case of phosphatidylcholine and chloroform in the case of cholesteryl-3-sulphate. The molar ratios are 1 M/0.1 M/0.25 M for phosphatidylcholine, cholesteryl-3-sulphate and the 7β-OHCH—C3-ester and the active ingredients respectively.
After evaporation, a solution of PBS saline, without Ca^2+ and Mg^2+, pH7.2 (BioRad) is added to the dry compound. The volume of buffer and the mass of the products are adjusted so that 20 or 10 μl of liposomes added to 90 μl of culture medium gives the desired final concentrations. The liposomes are formed by the extrusion technique with Liposofast (Sodexim, SA Muizon, France). The solution is passed through polycarbonate filtration membranes (100 nm) 41 times. The liposomes are sterilized by filtration on […] Millipore membranes.
For example, in the case of the cultures in 96-well plates and as a function of the magnification of the microscope used (objectives×10 or ×20, oculars×10), a photograph taken represents a field of view with a diameter equal to 1/5 of the diameter of a well. Therefore the total number of cells in a well is equal to […] the number of cells per photograph. This technique was compared with a standard technique (trypsinization of the cell layer, centrifugation of the cells, suspension of the cells in physiological saline solution and counting with a THOMA cell) in the case of the C6 cells. The results obtained are identical for both methods.
The culture medium is withdrawn from each well and 50 μl of Laemmli buffer (0.1 ml of Tris, 0.8 ml of glycerol, 1.6 mL of 10% SDS, 8 ml q.s.f ultrapure water) is added per well.
This test makes it possible to detect the cellular respiration, especially the mitochondrial respiration. The stock solution of tetrazolium salt MTT (3-(4,5-dimethylthiazol-2-yl)-2,5-diphenyl tetrazolium bromide, Sigma-Aldrich, USA, ref. M5655) is prepared with 10 mg of MIT/ml of PBS buffer (phosphate-buffered saline, SIGMA, ref. D 1408). This solution is added directly to the culture medium in each well; the final concentration of MTT is 25 μg/ml. The plate is then incubated at 37° C. for at least 1 h. […]

[2] = system: normal (non-cancerous) human astrocytes; assay: Toxicity in vitro on primary cultures of normal human astrocytes; format: cell-based; conditions: 30 μM, after 30 days of treatment
Method: The astrocyte cells of human origin used were obtained from ScienCell, USA (ref. 1800) as well as their culture medium, made up of basic medium containing 2% (v/v) FCS serum (ref. 0010), astrocyte growth proteins (AGS, ref. 1852) and a solution of penicillin/streptomycin (ref. 0503). The doubling time of these human astrocytes is 96 h. • Hepatic cells
(§1) The same methods are used for both cases. For the activity, the anti-GBM potential of the test compounds is used, and the toxicity, is tested on normal cells of human origin maintained “in vitro”.
The cells used are cells of human origin (ScienCell, USA, ref. 1800), mentioned above (section II, A).
The astrocyte type is validated by the presence of GFAP, the standard marker of normal astrocytes (FIG. 11; magnification×200).

[3] = system: liver cells; assay: Toxicity in vitro on primary cultures of liver cells; format: cell-based, human; conditions: 30 μM, at least 30 days of treatment
Method: Of human origin, they were obtained from ScienCell, USA (ref. 50200) as was the culture medium (ref. 5201), which contains 10% (v/v) FCS. The doubling time of these cells is 24 h. • Renal cells
as §1
(§2) The cells used are liver cells (ScienCell, USA, ref. 50200), kidney cells (ScienCell, USA, ref. 4120), skeletal muscle cells (ScienCell, USA, ref. 3500) and cardiac cells (ScienCell, USA, ref. 6300), of human origin, mentioned above (section II, A).

[4] = system: kidney cells; assay: Toxicity in vitro on primary cultures of kidney cells; format: cell-based, human; conditions: 30 μM, at least 30 days of treatment
Method: These cells, of human origin, were obtained from ScienCell, USA (ref. 4120) as was the culture medium (ref. 4101), which contains 10% (v/v) FCS. The doubling time is 96 h. • Cardiac cells
as §1, §2

[5] = system: skeletal muscle cells; assay: Toxicity in vitro on primary cultures of skeletal muscle cells; format: cell-based, human; conditions: 30 μM, at least 30 days of treatment
Method: Of human origin, they were obtained from ScienCell, USA (ref. 3500) as was the culture medium (ref. 3501), which contains 10% (v/v) FCS. The doubling time for these cells is 72 h.
as §1, §2

[6] = system: cardiac cells; assay: Toxicity in vitro on primary cultures of cardiac cells; format: cell-based, human; conditions: 30 μM, at least 30 days of treatment
Method: These cells, of human origin, were obtained from ScienCell, USA (ref. 6300) as was the culture medium, which contains 10% (v/v) FCS. The doubling time is 72 h. • Skeletal muscle cells
as §1, §2

Row | Compound | presence of GBM cells (CA) ([1]; 15 μM, liposomal form, 15 days of treatment) | cellular respiration before cell death ([1]; liposomal form) | MTT/cell relative to the controls ([1]; liposomal form, 8 days of treatment) | cell multiplication after replacing the medium with fresh drug-free medium ([1]; liposomal form, medium replaced on the 13th day of treatment) | toxicity ([2]; liposomal form) | toxicity ([3]; liposomal form) | toxicity ([4]; liposomal form) | toxicity ([5]; liposomal form) | toxicity ([6]; liposomal form) | remaining GBM cells ([1]; 30 μM, ethanolic form, even after removing the active ingredient) | cellular respiration before cell death ([1]; ethanolic form) | reduction of the level of proteins relative to the untreated control cells ([1]; ethanolic form) | cellular multiplication after replacement of the culture medium with fresh drug-free medium ([1]; medium replaced at 22 days) | toxicity ([2]; ethanolic form) | toxicity ([3]; ethanolic form) | toxicity ([4]; ethanolic form) | toxicity ([5]; ethanolic form) | toxicity ([6]; ethanolic form)
1 | CC(C)CCCC(C)C1CCC2C3C(OC(=O)OC(C)(C)C)C=C4CC(OC(=O)C5COC(C)(C)O5)CCC4(C)C3CCC12C (stereo not drawn) [Molecule 2.a, 7-((tert-butoxycarbonyl)oxy)-10,13-dimethyl-17-(6-methylheptan-2-yl)-2,3,4,7,8,9,10,11,12,13,14,15,16,17-tetradecahydro-1H-cyclopenta[a]phenanthren-3-yl 2,2-dimethyl-1,3-dioxolane-4-carboxylate] | zero | cellular respiration increases before cell death | 140% | no cell multiplication is observed | not toxic | not toxic | not toxic | not toxic | not toxic | – | – | – | – | – | – | – | – | –
2 | CC(=O)OC1C=C2CC(OC(=O)C3COC(C)(C)O3)CCC2(C)C2CCC3(C)C(C(C)CCCC(C)C)CCC3C12 (stereo not drawn) [Molecule 2.b, 7-acetoxy-10,13-dimethyl-17-(6-methylheptan-2-yl)-2,3,4,7,8,9,10,11,12,13,14,15,16,17-tetradecahydro-1H-cyclopenta[a]phenanthren-3-yl 2,2-dimethyl-1,3-dioxolane-4-carboxylate] | – | – | – | – | – | – | – | – | – | no GBM cell remains | cellular respiration increases before cell death | 100% | does not lead to any cellular multiplication | not toxic | not toxic | not toxic | not toxic | not toxic
